# According to ChEMBL document CHEMBL1158620, “Synthesis and evaluation of novel alpha-amino cyclic boronates as inhibitors of HCV NS3 protease” (Bioorg Med Chem Lett, 2010):
# Legend:
# [1] = tested on: Hepatitis C virus; test: Antiviral activity against HCV 1b by cell based replicon assay; assay type: functional, organism-based, Hepacivirus hominis; conditions: genotype 1b
# [2] = tested on: Hepatitis C virus; test: Inhibition of HCV 1a NS3/4A protease by FRET assay; assay type: functional, Hepatitis C virus subtype 1a; conditions: for IC50: Hepatitis C virus
# [3] = tested on: Hepatitis C virus; test: Antiviral activity against HCV 1a by cell based replicon assay; assay type: functional, organism-based, Hepacivirus hominis; conditions: subtype 1a
smiles,measurement,setting,value
CC(C)(C)[C@@H](NC(=O)OC1CCCC1)C(=O)N1C[C@H](Oc2nccc3ccccc23)C[C@H]1C(=O)N[C@@H]1B(O)OC[C@@H]1C1CC1,EC50,[1],> 1000 nM
same,IC50,[2],1930 nM
same,EC50,[3],> 1000 nM
CC(C)(C)[C@H](NC(=O)OC1CCCC1)C(=O)N1C[C@H](OC(=O)N2Cc3cccc(F)c3C2)C[C@H]1C(=O)N[C@H]1CCOB1O,EC50,[1],> 1000 nM
same,IC50,[2],23 nM
same,EC50,[3],> 1000 nM
CC(C)(C)[C@H](NC(=O)OC1CCCC1)C(=O)N1C[C@H](OC(=O)N2Cc3cccc(F)c3C2)C[C@H]1C(=O)N[C@@H]1CCOB1O,EC50,[1],> 1000 nM
same,IC50,[2],5310 nM
same,EC50,[3],> 1000 nM
CC(C)(C)[C@H](NC(=O)OC1CCCC1)C(=O)N1C[C@H](OC(=O)N2Cc3cccc(F)c3C2)C[C@H]1C(=O)NC1CCCOB1O (stereo not given in full),EC50,[1],> 1000 nM
same,IC50,[2],320 nM
same,EC50,[3],> 1000 nM
CC(C)(C)[C@H](NC(=O)OC1CCCC1)C(=O)N1C[C@H](OC(=O)N2Cc3cccc(F)c3C2)C[C@H]1C(=O)NC1CCCCOB1O (stereo not given in full),EC50,[1],> 1000 nM
same,IC50,[2],24 nM
same,EC50,[3],> 1000 nM
CC[C@H]1COB(O)[C@H]1NC(=O)[C@@H]1C[C@@H](OC(=O)N2Cc3cccc(F)c3C2)CN1C(=O)[C@@H](NC(=O)OC1CCCC1)C(C)(C)C,EC50,[1],> 1000 nM
same,IC50,[2],330 nM
same,EC50,[3],> 1000 nM
CC(C)(C)[C@H](NC(=O)OC1CCCC1)C(=O)N1C[C@H](OC(=O)N2Cc3cccc(F)c3C2)C[C@H]1C(=O)N[C@@H]1B(O)OC[C@@H]1C1CC1,EC50,[1],> 1000 nM
same,IC50,[2],200 nM
same,EC50,[3],> 1000 nM
C[C@H]1C[C@H](NC(=O)[C@@H]2C[C@@H](OC(=O)N3Cc4cccc(F)c4C3)CN2C(=O)[C@@H](NC(=O)OC2CCCC2)C(C)(C)C)B(O)O1,EC50,[1],> 1000 nM
same,IC50,[2],340 nM
same,EC50,[3],> 1000 nM
C[C@H]1[C@H](C)OB(O)[C@H]1NC(=O)[C@@H]1C[C@@H](OC(=O)N2Cc3cccc(F)c3C2)CN1C(=O)[C@@H](NC(=O)OC1CCCC1)C(C)(C)C,EC50,[1],> 1000 nM
same,IC50,[2],4470 nM
same,EC50,[3],> 1000 nM
CC(C)(C)[C@H](NC(=O)OC1CCCC1)C(=O)N1C[C@H](OC(=O)N2Cc3cccc(F)c3C2)C[C@H]1C(=O)N[C@H]1COB(O)C1,EC50,[1],> 1000 nM
same,IC50,[2],8500 nM
same,EC50,[3],> 1000 nM
CC(C)(C)[C@@H](NC(=O)OC1CCCC1)C(=O)N1C[C@H](Oc2nccc3ccccc23)C[C@H]1C(=O)N[C@H]1CCOB1O,EC50,[1],> 1000 nM
same,IC50,[2],120 nM
same,EC50,[3],> 1000 nM
CC(C)(C)[C@@H](NC(=O)OC1CCCC1)C(=O)N1C[C@H](Oc2nccc3ccccc23)C[C@H]1C(=O)N[C@@H]1CCOB1O,EC50,[1],> 1000 nM
same,IC50,[2],2750 nM
same,EC50,[3],> 1000 nM
CC(C)(C)[C@@H](NC(=O)OC1CCCC1)C(=O)N1C[C@H](Oc2nccc3ccccc23)C[C@H]1C(=O)NC1CCCOB1O (stereo not given in full),EC50,[1],> 1000 nM
same,IC50,[2],730 nM
same,EC50,[3],> 1000 nM
CC(C)(C)[C@@H](NC(=O)OC1CCCC1)C(=O)N1C[C@H](Oc2nccc3ccccc23)C[C@H]1C(=O)NC1CCCCOB1O (stereo not given in full),EC50,[1],> 1000 nM
same,IC50,[2],170 nM
same,EC50,[3],> 1000 nM
CC(C)(C)[C@H](NC(=O)[C@@H](NC(=O)c1cnccn1)C1CCCCC1)C(=O)N1C[C@@H]2CCC[C@@H]2[C@H]1C(=O)N[C@H]1CCOB1O,EC50,[1],> 1000 nM
same,IC50,[2],120 nM
same,EC50,[3],> 1000 nM
CC(C)(C)NC(=O)N[C@H](C(=O)N1C[C@H]2[C@@H]([C@H]1C(=O)N[C@H]1CCOB1O)C2(C)C)C(C)(C)C,EC50,[1],> 1000 nM
same,IC50,[2],340 nM
same,EC50,[3],> 1000 nM
CCC[C@H](NC(=O)[C@@H]1[C@H]2CCC[C@H]2CN1C(=O)[C@@H](NC(=O)[C@@H](NC(=O)c1cnccn1)C1CCCCC1)C(C)(C)C)C(=O)C(=O)NC1CC1,Ki,[2],44 nM
same,IC50,[2],100 nM
